One assay addresses T1, HIV protease (Human immunodeficiency virus type 1 group M subtype B, UniProt P04585). As to the kind of experiment: peptide cleavage assay (HIV protease assay). Format: biochemical.
Conditions: not given
`C=C1C(C)C2C(Cc3ccccc3)NC(=O)C23C(OC(C)=O)C=CC(C)CC(C)CC=CC3C1O` (centres unmarked) [Compound 1] had an IC50 of around 6.28 µM.

A further assay has as its target T1, HIV protease. Description: Assay for Inhibition of Recombinant HIV Protease (tritiated peptide substrate cleavage). It is filed as biochemical. Also noted: the HIV protease expressed in Escherichia coli; made in house; host or cells: Escherichia coli. Particulars: pH 5.5, 60 minutes at 37° C., HIV protease expressed in Escherichia coli, [3H]-peptide substrate. As for the experimental part: Assay for Inhibition of Recombinant HIV Protease
Inhibition studies were performed on the reaction of the HIV protease expressed in Escherichia coli with a tritiated peptide substrate, [^3 H]-acetyl-Val-Ser-Gln-Asn-(beta-napthyl-Ala)-Pro-Ile-Val-Gin-Gly-Arg-Arg-NH2 (MW 1800). The two arginine residues at the carboxyl terminus give this peptide an overall positive charge at acidic pH and enable it to bind to the H^+ form of DOWEX AG-50W-X8 resin and similar resins.
Aliquots of 25 μl containing 6.0-8.0 nM HIV protease in assay buffer (100 mM sodium acetate, pH 5.5 and 0.1% BSA) are placed in assay tubes. The reaction is initiated by addition of 25 μl aliquots of 4.2 μM tritiated peptide substrate in 100 mM sodium acetate, pH 5.5. After incubation for 60 minutes at 37° C., the reaction is stopped with 100 μl of 5% H3 PO4, then analysed by application of column chromatography.
In the case of `C=C1C(C)C2C(Cc3cccc(O)c3)NC(=O)C23C(OC(C)=O)C=CC(C)CC(CO)CC=CC3C1O` (centres unmarked) [Compound 4], the IC50 was 25 µM. As to `C=C1C(C)C2C(Cc3ccc(O)c(O)c3)NC(=O)C23C(OC(C)=O)C=CC(C)CC(CO)CC=CC3C1O` (centres unmarked) [Compound 5], the IC50 is above 50 µM. Consider `C=C1C(C)C2C(Cc3cccc(O)c3)NC(=O)C23C(OC(C)=O)C=CC(C)CC(O)(CO)CC=CC3C1O` (centres unmarked) [Compound 7], for which the 50% inhibitory concentration (IC50) is above 50 µM. Regarding `C=C1C(C)C2C(Cc3ccccc3)NC(=O)C23C(OC(C)=O)C=CC(C)CC(C)CC=CC3C1O` (centres unmarked) [Compound 1], the IC50 is 10 µM. The same measure, in the same setting: to `C=C1C(C)C2C(Cc3ccccc3)NC(=O)C23C(OC(C)=O)C=CC(C)CC(O)(CO)CC=CC3C1O` (centres unmarked) [Compound 6] belongs above 50 µM; to `C=C1C(C)C2C(Cc3ccc(O)cc3)NC(=O)C23C(OC(C)=O)C=CC(C)CC(CO)CC=CC3C1O` (centres unmarked) [Compound 3], 40 µM; to `C=C1C(C)C2C(Cc3ccccc3)NC(=O)C23C(OC(C)=O)C=CC(C)CC(CO)CC=CC3C1O` (centres unmarked) [Compound 2], 43 µM.

Usually IC50 stands for the midpoint of a concentration-inhibition curve.
